# Assay results taken from patent US7153869B2, “Substituted amino acids as erythropoietin mimetics” (priority 1998, dated 2006).
# Read-outs that look alike come from different tables or passages of the source.
# Target: T1, EBP-Ig (N-terminal 225 amino acids of the human EPO receptor joined to an Ig heavy chain) (Homo sapiens, UniProt P19235)
# T1 construct: Ig heavy chain (fusion partner); made in house; host or cells: NSO cells (secreted into conditioned media)
# T1 sequence (P19235 25-250 limits assumed): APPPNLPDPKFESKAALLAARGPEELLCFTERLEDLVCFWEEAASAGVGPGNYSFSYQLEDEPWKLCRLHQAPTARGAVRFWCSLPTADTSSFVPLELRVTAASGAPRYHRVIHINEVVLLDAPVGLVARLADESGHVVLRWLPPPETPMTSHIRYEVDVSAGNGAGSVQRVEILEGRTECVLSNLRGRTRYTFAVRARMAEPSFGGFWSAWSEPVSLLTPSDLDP
# Experiment: Inhibition of [125I]EPO binding to immobilized EBP-Ig (EPO binding protein-Ig), scintillation Flash plate competition assay
# Details: for % inh @ 50 μM (Inhibition of EPO binding to EBP-Ig): 50 μM test compound, average % inhibition; for % inh @ 50 μM (Inhibition of EPO binding to EBP-Ig) / IC30 μM (Inhibition of EPO binding to EBP-Ig): 0.5 nM [125I]EPO; for IC30 μM (Inhibition of EPO binding to EBP-Ig): 0–500 μM test compound
compound,measurement,setting,value
"COC(=O)C(CCCCN)N(Cc1ccc(OCc2ccccc2)cc1)Cc1cccc(NC(=O)c2ccco2)c1 (stereo not drawn) [cpd 117, N-(4-Benzyloxybenzyl)-N-(3-((2-furancarbonyl)amino)benzyl)Lys-OMe]",% inh @ 50 μM (Inhibition of EPO binding to EBP-Ig),,34%
same,EPO/EBP-Ig % inh @ 50 μM,"Table 7, 50 μM",34%
CC(=O)O.COC(=O)[C@H](CO)N(C/C=C/c1cccc(Oc2cccc(C(F)(F)F)c2)c1)C/C=C/c1cccc(Oc2cccc(C(F)(F)F)c2)c1 [compound 297],EPO/EBP-Ig % inh @ 50 μM,"50 μM compound, Table 16A",0%
COC(=O)[C@H](CCC(=O)O)NC/C=C/c1ccc(-c2ccccc2)cc1.O=C(O)C(F)(F)F [compound 327],EPO/EBP-Ig % inh @ 50 μM,"50 μM compound, Table 19A",11%
CC(C)(C)OC(=O)CC(C(=O)OC(C)(C)C)N(C/C=C/c1cccc(Oc2ccccc2)c1)Cc1cccc(Oc2ccccc2)c1 (stereo not drawn) [compound 76],EPO/EBP-Ig % inh @ 50 μM,"Table 5, 50 μM",25%
COC(=O)[C@H](CCCCNC(=O)OCc1ccccc1)NC/C=C/c1ccc(C(=O)O)cc1 [compound 323],EPO/EBP-Ig % inh @ 50 μM,"50 μM compound, Table 18A",6%
CCCCNC(=O)C(CCCCNC(=O)c1ccc(OC)cc1)N(C/C=C/c1ccccc1)C/C=C/c1ccccc1 (stereo not drawn) [compound 207],EPO/EBP-Ig % inh @ 50 μM,"50 μM compound, Table 10",20%
CC(=O)O.COC(=O)c1cccc(C=CCNC(CSCc2ccccc2)C(=O)OC)c1 (stereo not drawn) [compound 368],IC30 μM (Inhibition of EPO binding to EBP-Ig),,90 µM
same,EPO/EBP-Ig % inh @ 50 μM,50 μM compound,40%
same,% inh @ 50 μM (Inhibition of EPO binding to EBP-Ig),,40%
"COC(=O)C(COC(C)(C)C)NCC=Cc1cccc(Oc2ccccc2)c1 (stereo not drawn) [cpd 352, N-(3-phenoxycinnamyl)Ser(t-Bu)-OMe]",EPO/EBP-Ig % inh @ 50 μM,"50 μM compound, Table 20A",8%
"O=C(O)CCC(C(=O)NCCOCCOCCNC(=O)C(CCC(=O)O)N(Cc1ccc(OCc2ccccc2)cc1)Cc1ccc(OCc2ccccc2)cc1)N(Cc1ccc(OCc2ccccc2)cc1)Cc1ccc(OCc2ccccc2)cc1 (stereo not drawn) [cpd 246, [N,N-bis(4-Benzyloxybenzyl)GluNHCH2CH2OCH2]2]",IC30 μM (Inhibition of EPO binding to EBP-Ig),,10 µM
same,inhibition at 50 µM,read-out: % inh @ 50 μM (Inhibition of EPO binding to EBP-Ig),79%
same,inhibition at 50 µM,"read-out: EPO/EBP-Ig % inh @ 50 μM, Table 11, 50 μM",79%
COC(=O)C(CCCCN)N(C/C=C/c1cccc(N)c1)C/C=C/c1cccc(N)c1 (stereo not drawn) [compound 185],EPO/EBP-Ig % inh @ 50 μM,"50 μM compound, Table 9",29%
